The nature of test [1]: Carbonyl compound-trapping effect of biguanide agents in phosphate buffer (Example 1). The note with it: 3 mM biguanide agent, 0.1 mM carbonyl compounds each, 0.1M phosphate buffer pH7.4, 37° C., over incubation period; HPLC.
Experiment in test [2]: as above
To be noted: 3 mM biguanide agent, 0.1 mM carbonyl compounds each, 0.1M phosphate buffer pH7.4, 37° C., over incubation period; HPLC. This is another data set of the same source.

For the molecule `CCCCNC(=N)NC(=N)N` [buformin, butyl biguanide], the concentration of methylglyoxal result in test [1] was “markedly decreased”. Moreover, in test [2], the concentration of glyoxal entry is given as “markedly decreased”.
`N=C(N)NC(=N)NCCc1ccccc1` [phenformin, phenethyl biguanide]: the concentration of methylglyoxal entry in test [1] is “markedly decreased”. The concentration of glyoxal entry in test [2] is on record as “markedly decreased”.

Source of the values: patent publication US7169407B1, “Carbonyl stress-decreasing agent” (Kiyoshi Kurokawa, priority 1999, dated 2007).
